Source: ChEMBL document CHEMBL5055633, “Amphipathic Barbiturates as Mimics of Antimicrobial Peptides and the Marine Natural Products Eusynstyelamides with Activity against Multi-resistant Clinical Isolates” (J Med Chem, 2021)
Converted amounts (≈) assume the structure as drawn.

Tests used:
HepG2 = assay: Cytotoxicity against human HepG2 cells assessed as reduction in cell viability incubated for 24 hrs by colorimetric tetrazolium assay; format: functional, cell-based; conditions: HepG2, 24 h
[1] = Hemolytic activity in human erythrocytes incubated for 1 hr by microplate reader; format: functional, cell-based; conditions: erythrocyte
Pseudomonas aeruginosa [2] = assay: Antimicrobial activity against Pseudomonas aeruginosa PAO1 assessed as reduction in bacterial growth incubated for 48 hrs by microdilution susceptibility test; format: functional
Escherichia coli [3] = assay: Antimicrobial activity against Escherichia coli ATCC 25922 assessed as reduction in bacterial growth incubated for 48 hrs by microdilution susceptibility test; format: functional
[4] = tested on: Corynebacterium glutamicum; assay: Antimicrobial activity against Corynebacterium glutamicum ATCC 13032 assessed as reduction in bacterial growth incubated for 48 hrs by microdilution susceptibility test; format: functional
Staphylococcus aureus [5] = assay: Antimicrobial activity against Staphylococcus aureus ATCC 9144 assessed as reduction in bacterial growth incubated for 48 hrs by microdilution susceptibility test; format: functional
MRC5 = assay: Cytotoxicity against human MRC5 cells assessed as reduction in cell viability incubated for 24 hrs by colorimetric tetrazolium assay; format: functional, cell-based; conditions: MRC5, 24 h
Staphylococcus aureus [6] = assay: Antimicrobial activity against extended spectrum-lactamase-carbapenemas producing Staphylococcus aureus N315 assessed as reduction in bacterial growth incubated for 48 hrs by microdilution method; format: functional
Staphylococcus aureus [7] = assay: Antimicrobial activity against extended spectrum-lactamase-carbapenemas producing Staphylococcus aureus NCTC 10442 assessed as reduction in bacterial growth incubated for 48 hrs by microdilution method; format: functional
Staphylococcus aureus [8] = assay: Antimicrobial activity against extended spectrum-lactamase-carbapenemas producing Staphylococcus aureus strain 85/2082 assessed as reduction in bacterial growth incubated for 48 hrs by microdilution method; format: functional
Staphylococcus aureus [9] = assay: Antimicrobial activity against extended spectrum-lactamase-carbapenemas producing Staphylococcus aureus strain WIS assessed as reduction in bacterial growth incubated for 48 hrs by microdilution method; format: functional
Staphylococcus aureus [10] = assay: Antimicrobial activity against extended spectrum-lactamase-carbapenemas producing Staphylococcus aureus strain IHT 99040 assessed as reduction in bacterial growth incubated for 48 hrs by microdilution method; format: functional
Enterococcus faecium [11] = assay: Antimicrobial activity against extended spectrum-lactamase-carbapenemas producing Enterococcus faecium strain 50673722 assessed as reduction in bacterial growth incubated for 48 hrs by microdilution method; format: functional
Enterococcus faecium [12] = assay: Antimicrobial activity against extended spectrum-lactamase-carbapenemas producing Enterococcus faecium strain 50901530 assessed as reduction in bacterial growth incubated for 48 hrs by microdilution method; format: functional
Enterococcus faecium [13] = assay: Antimicrobial activity against extended spectrum-lactamase-carbapenemas producing Enterococcus faecium strain K36-18 assessed as reduction in bacterial growth incubated for 48 hrs by microdilution method; format: functional
Enterococcus faecium [14] = assay: Antimicrobial activity against extended spectrum-lactamase-carbapenemas producing Enterococcus faecium strain 50758899 assessed as reduction in bacterial growth incubated for 48 hrs by microdilution method; format: functional
Enterococcus faecium [15] = assay: Antimicrobial activity against extended spectrum-lactamase-carbapenemas producing Enterococcus faecium strain TUH.50-22 assessed as reduction in bacterial growth incubated for 48 hrs by microdilution method; format: functional
Escherichia coli [16] = assay: Antimicrobial activity against oxacillinase-producing Escherichia coli 50579417 assessed as reduction in bacterial growth incubated for 48 hrs by microdilution method; format: functional
Escherichia coli [17] = assay: Antimicrobial activity against verona integron-encoded metallo-beta-lactamase-29-producing Escherichia coli 50639799 assessed as reduction in bacterial growth incubated for 48 hrs by microdilution method; format: functional
Escherichia coli [18] = assay: Antimicrobial activity against New Delhi metallo-beta lactamase-1 producing Escherichia coli 50676002 assessed as reduction in bacterial growth incubated for 48 hrs by microdilution method; format: functional
Escherichia coli [19] = assay: Antimicrobial activity against New Delhi metallo-beta lactamase-1 producing Escherichia coli 50739822 assessed as reduction in bacterial growth incubated for 48 hrs by microdilution method; format: functional
Escherichia coli [20] = assay: Antimicrobial activity against imipenem-type carbapenemase-26 producing Escherichia coli 50857972 assessed as reduction in bacterial growth incubated for 48 hrs by microdilution method; format: functional
Pseudomonas aeruginosa [21] = assay: Antimicrobial activity against verona integron-encoded metallo-beta-lactamase-2 producing Pseudomonas aeruginosa K34-7 assessed as reduction in bacterial growth incubated for 48 hrs by microdilution method; format: functional
Pseudomonas aeruginosa [22] = assay: Antimicrobial activity against verona integron-encoded metallo-beta-lactamase-4 producing Pseudomonas aeruginosa K34-73 assessed as reduction in bacterial growth incubated for 48 hrs by microdilution method; format: functional
Pseudomonas aeruginosa [23] = assay: Antimicrobial activity against imipenem-type carbapenemase-14 producing Pseudomonas aeruginosa K44-24 assessed as reduction in bacterial growth incubated for 48 hrs by microdilution method; format: functional
Pseudomonas aeruginosa [24] = assay: Antimicrobial activity against New Delhi metallo-beta lactamase-1 producing Pseudomonas aeruginosa 50692172 assessed as reduction in bacterial growth incubated for 48 hrs by microdilution method; format: functional
Pseudomonas aeruginosa [25] = assay: Antimicrobial activity against verona integron-encoded metallo-beta-lactamase producing Pseudomonas aeruginosa 50692520 assessed as reduction in bacterial growth incubated for 48 hrs by microdilution method; format: functional
[26] = Antimicrobial activity against carbapenemase producing Klebsiella pneumoniae K47-25 assessed as reduction in bacterial growth incubated for 48 hrs by microdilution method; format: functional
[27] = Antimicrobial activity against New Delhi metallo-beta lactamase-1 Klebsiella pneumoniae K66-45 assessed as reduction in bacterial growth incubated for 48 hrs by microdilution method; format: functional
[28] = Antimicrobial activity against New Delhi metallo-beta lactamase-1 and oxacillinase -181 producing Klebsiella pneumoniae 50531633 assessed as reduction in bacterial growth incubated for 48 hrs by microdilution method; format: functional
[29] = Antimicrobial activity against oxacillinase-245 producing Klebsiella pneumoniae 50625602 assessed as reduction in bacterial growth incubated for 48 hrs by microdilution method; format: functional
[30] = Antimicrobial activity against verona integron-encoded metallo-beta-lactamase -1 producing Klebsiella pneumoniae 50667959 assessed as reduction in bacterial growth incubated for 48 hrs by microdilution method; format: functional
Acinetobacter baumannii [31] = assay: Antimicrobial activity against oxacillinase-58 producing Acinetobacter baumannii K12-21 assessed as reduction in bacterial growth incubated for 48 hrs by microdilution method; format: functional
Acinetobacter baumannii [32] = assay: Antimicrobial activity against oxacillinase-23 producing Acinetobacter baumannii K44-35 assessed as reduction in bacterial growth incubated for 48 hrs by microdilution method; format: functional
Acinetobacter baumannii [33] = assay: Antimicrobial activity against oxacillinase-23 producing Acinetobacter baumannii K47-42 assessed as reduction in bacterial growth incubated for 48 hrs by microdilution method; format: functional
Acinetobacter baumannii [34] = assay: Antimicrobial activity against oxacillinase-24 producing Acinetobacter baumannii K55-13 assessed as reduction in bacterial growth incubated for 48 hrs by microdilution method; format: functional
Acinetobacter baumannii [35] = assay: Antimicrobial activity against oxacillinase-23 producing Acinetobacter baumannii K63-58 assessed as reduction in bacterial growth incubated for 48 hrs by microdilution method; format: functional

Structure (SMILES)	IC50 (HepG2)	EC50 [1]	MIC (Pseudomonas aeruginosa [2])	MIC (Escherichia coli [3])	MIC [4]	MIC (Staphylococcus aureus [5])	IC50 (MRC5)	MIC (Staphylococcus aureus [6])	MIC (Staphylococcus aureus [7])	MIC (Staphylococcus aureus [8])	MIC (Staphylococcus aureus [9])	MIC (Staphylococcus aureus [10])	MIC (Enterococcus faecium [11])	MIC (Enterococcus faecium [12])	MIC (Enterococcus faecium [13])	MIC (Enterococcus faecium [14])	MIC (Enterococcus faecium [15])	MIC (Escherichia coli [16])	MIC (Escherichia coli [17])	MIC (Escherichia coli [18])	other results
NCCCCN1C(=O)N(CCCCN)C(=O)C(Cc2ccc3ccccc3c2)(Cc2ccc3ccccc3c2)C1=O.O=C(O)C(F)(F)F.O=C(O)C(F)(F)F	7 µg/mL	250 µg/mL	16 µg/mL	16 µg/mL	1 µg/mL	8 µg/mL	2 µg/mL	8 µg/mL	8 µg/mL	8 µg/mL	8 µg/mL	8 µg/mL	16 µg/mL	8 µg/mL	16 µg/mL	16 µg/mL	8 µg/mL	16 µg/mL	16 µg/mL	16 µg/mL	MIC (Escherichia coli [19]): 16 µg/mL; MIC (Escherichia coli [20]): 16 µg/mL; MIC (Pseudomonas aeruginosa [21]): 32 µg/mL; MIC (Pseudomonas aeruginosa [22]): 32 µg/mL; MIC (Pseudomonas aeruginosa [23]): > 32 µg/mL; MIC (Pseudomonas aeruginosa [24]): 32 µg/mL; MIC (Pseudomonas aeruginosa [25]): 32 µg/mL; MIC [26]: > 32 µg/mL; MIC [27]: > 32 µg/mL; MIC [28]: 32 µg/mL; MIC [29]: > 32 µg/mL; MIC [30]: > 32 µg/mL; MIC (Acinetobacter baumannii [31]): 32 µg/mL; MIC (Acinetobacter baumannii [32]): 32 µg/mL; MIC (Acinetobacter baumannii [33]): 32 µg/mL; MIC (Acinetobacter baumannii [34]): 32 µg/mL; MIC (Acinetobacter baumannii [35]): 16 µg/mL
N=C(N)NCCCCN1C(=O)N(CCCCNC(=N)N)C(=O)C(Cc2cc(C(F)(F)F)cc(C(F)(F)F)c2)(Cc2cc(C(F)(F)F)cc(C(F)(F)F)c2)C1=O.O=C(O)C(F)(F)F.O=C(O)C(F)(F)F	19 µg/mL	98 µg/mL	8 µg/mL	2 µg/mL	2 µg/mL	2 µg/mL	29 µg/mL	2 µg/mL	2 µg/mL	2 µg/mL	2 µg/mL	2 µg/mL	2 µg/mL	2 µg/mL	4 µg/mL	4 µg/mL	2 µg/mL	8 µg/mL	4 µg/mL	4 µg/mL	MIC (Escherichia coli [19]): 8 µg/mL; MIC (Escherichia coli [20]): 4 µg/mL; MIC (Pseudomonas aeruginosa [21]): 16 µg/mL; MIC (Pseudomonas aeruginosa [22]): 16 µg/mL; MIC (Pseudomonas aeruginosa [23]): 16 µg/mL; MIC (Pseudomonas aeruginosa [24]): 16 µg/mL; MIC (Pseudomonas aeruginosa [25]): 16 µg/mL; MIC [26]: 16 µg/mL; MIC [27]: 16 µg/mL; MIC [28]: 16 µg/mL; MIC [29]: 8 µg/mL; MIC [30]: 16 µg/mL; MIC (Acinetobacter baumannii [31]): 16 µg/mL; MIC (Acinetobacter baumannii [32]): 16 µg/mL; MIC (Acinetobacter baumannii [33]): 16 µg/mL; MIC (Acinetobacter baumannii [34]): 16 µg/mL; MIC (Acinetobacter baumannii [35]): 16 µg/mL
N=C(N)NCCCCN1C(=O)N(CCCCNC(=N)N)C(=O)C(Cc2ccc(Br)c(Cl)c2)(Cc2ccc(Br)c(Cl)c2)C1=O.O=C(O)C(F)(F)F.O=C(O)C(F)(F)F	15 µg/mL	77 µg/mL	8 µg/mL	2 µg/mL	0.25 µg/mL	0.5 µg/mL	36 µg/mL	2 µg/mL	4 µg/mL	2 µg/mL	2 µg/mL	2 µg/mL	4 µg/mL	2 µg/mL	4 µg/mL	4 µg/mL	2 µg/mL	4 µg/mL	4 µg/mL	4 µg/mL	MIC (Escherichia coli [19]): 4 µg/mL; MIC (Escherichia coli [20]): 4 µg/mL; MIC (Pseudomonas aeruginosa [21]): 16 µg/mL; MIC (Pseudomonas aeruginosa [22]): 8 µg/mL; MIC (Pseudomonas aeruginosa [23]): 16 µg/mL; MIC (Pseudomonas aeruginosa [24]): 32 µg/mL; MIC (Pseudomonas aeruginosa [25]): 16 µg/mL; MIC [26]: 4 µg/mL; MIC [27]: 8 µg/mL; MIC [28]: 4 µg/mL; MIC [29]: 4 µg/mL; MIC [30]: 8 µg/mL; MIC (Acinetobacter baumannii [31]): 8 µg/mL; MIC (Acinetobacter baumannii [32]): 8 µg/mL; MIC (Acinetobacter baumannii [33]): 8 µg/mL; MIC (Acinetobacter baumannii [34]): 8 µg/mL; MIC (Acinetobacter baumannii [35]): 8 µg/mL
N=C(N)NCCCCN1C(=O)N(CCCCNC(=N)N)C(=O)C(Cc2ccc(F)c3ccccc23)(Cc2ccc(F)c3ccccc23)C1=O.O=C(O)C(F)(F)F.O=C(O)C(F)(F)F	56 µg/mL	90 µg/mL	4 µg/mL	1 µg/mL	0.25 µg/mL	1 µg/mL	23 µg/mL	2 µg/mL	2 µg/mL	2 µg/mL	2 µg/mL	2 µg/mL	4 µg/mL	4 µg/mL	4 µg/mL	4 µg/mL	4 µg/mL	8 µg/mL	4 µg/mL	4 µg/mL	MIC (Escherichia coli [19]): 8 µg/mL; MIC (Escherichia coli [20]): 4 µg/mL; MIC (Pseudomonas aeruginosa [21]): 16 µg/mL; MIC (Pseudomonas aeruginosa [22]): 8 µg/mL; MIC (Pseudomonas aeruginosa [23]): 16 µg/mL; MIC (Pseudomonas aeruginosa [24]): 16 µg/mL; MIC (Pseudomonas aeruginosa [25]): 16 µg/mL; MIC [26]: 8 µg/mL; MIC [27]: 4 µg/mL; MIC [28]: 8 µg/mL; MIC [29]: 16 µg/mL; MIC [30]: 4 µg/mL; MIC (Acinetobacter baumannii [31]): 8 µg/mL; MIC (Acinetobacter baumannii [32]): 8 µg/mL; MIC (Acinetobacter baumannii [33]): 8 µg/mL; MIC (Acinetobacter baumannii [34]): 8 µg/mL; MIC (Acinetobacter baumannii [35]): 8 µg/mL
CN(C)[C@@H]1C(O)=C(C(N)=O)C(=O)[C@@]2(O)C(O)=C3C(=O)c4c(O)cccc4[C@@](C)(O)[C@H]3[C@H](O)[C@@H]12 [OXYTETRACYCLINE]				20 µg/mL (≈ 43.4 µM)	2.5 µg/mL (≈ 5.43 µM)	0.65 µg/mL (≈ 1.41 µM)															
